Patent US9315505B2, “Heterocyclic compounds and uses thereof” (INTELLIKINE LLC, priority 2009, dated 2016)
pEC50: −log10 of the molar value.

Tests used:
Balb/c splenic B cells = experiment: B cell activation and proliferation assay (Alamar Blue); assay type: cell-based; conditions: Mus musculus, read-out: B cell proliferation EC50
Experimental: The ability of one or more subject compounds to inhibit B cell activation and proliferation is determined according to standard procedures known in the art. For example, an in vitro cellular proliferation assay is established that measures the metabolic activity of live cells. The assay is performed in a 96 well microtiter plate using Alamar Blue reduction. Balb/c splenic B cells are purified over a Ficoll-Paque™ PLUS gradient followed by magnetic cell separation using a MACS B cell Isolation Kit (Miletenyi). Cells are plated in 90 ul at 50,000 cells/well in B Cell Media (RPMI+10% FBS+Penn/Strep+50 uM bME+5 mM HEPES). A compound disclosed herein is diluted in B Cell Media and added in a 10 ul volume. Plates are incubated for 30 min at 37 C and 5% CO2 (0.2% DMSO final concentration). A 50 ul B cell stimulation cocktail is then added containing either 10 ug/ml LPS or 5 ug/ml F(ab′)2 Donkey anti-mouse IgM plus 2 ng/ml recombinant mouse IL4 in B Cell Media. Plates are incubated for 72 hours at 37° C. and 5% CO2. A volume of 15 uL of Alamar Blue reagent is added to each well and plates are incubated for 5 hours at 37 C and 5% CO2. Alamar Blue fluoresce is read at 560Ex/590Em, and IC50 or EC50 values are calculated using GraphPad Prism 5.

PI3K γ = molecular target: T1, PI3K γ (Homo sapiens, UniProt P48736); experiment: In vitro IC50, PI3K γ (p110γ inhibition assay); assay type: biochemical; conditions: in vitro kinase assay
T1 construct: purchased Sigma
Experimental: (§1) Class I PI3-Ks can be either purchased (p110α/p85α, p110β/p85α, p110δ/p85α from Upstate, and p110γ from Sigma) or expressed as previously described (Knight et al., 2004). IC50 values are measured using either a standard TLC assay for lipid kinase activity (described below) or a high-throughput membrane capture assay. Kinase reactions are performed by preparing a reaction mixture containing kinase, inhibitor (2% DMSO final concentration), buffer (25 mM HEPES, pH 7.4, 10 mM MgCl2), and freshly sonicated phosphatidylinositol (100 μg/ml). Reactions are initiated by the addition of ATP containing 10 μCi of γ-32P-ATP to a final concentration 10 or 100 μM and allowed to proceed for 5 minutes at room temperature. For TLC analysis, reactions are then terminated by the addition of 105 μl 1N HCl followed by 160 μl CHCl3:MeOH (1:1). The biphasic mixture is vortexed, briefly centrifuged, and the organic phase is transferred to a new tube using a gel loading pipette tip precoated with CHCl3. This extract is spotted on TLC plates and developed for 3-4 hours in a 65:35 solution of n-propanol:1M acetic acid. The TLC plates are then dried, exposed to a phosphorimager screen (Storm, Amersham), and quantitated. For each compound, kinase activity is measured at 10-12 inhibitor concentrations representing two-fold dilutions from the highest concentration tested (typically, 200 μM).
(§2) Other commercial kits or systems for assaying PI3-K activities are available. The commercially available kits or systems can be used to screen for inhibitors and/or agonists of PI3-Ks including but not limited to PI 3-Kinase α, β, δ, and γ. An exemplary system is PI 3-Kinase (human) HTRF™ Assay from Upstate. […] Briefly, the assay is a time resolved FRET assay that indirectly measures PIP3 product formed by the activity of a PI3-K. The kinase reaction is performed in a microtitre plate (e.g., a 384 well microtitre plate). The total reaction volume is approximately 20 ul per well. In the first step, each well receives 2 ul of test compound in 20% dimethylsulphoxide resulting in a 2% DMSO final concentration. Next, approximately 14.5 ul of a kinase/PIP2 mixture (diluted in 1× reaction buffer) is added per well for a final concentration of 0.25-0.3 ug/ml kinase and 10 uM PIP2. The plate is sealed and incubated for 15 minutes at room temperature. To start the reaction, 3.5 ul of ATP (diluted in 1× reaction buffer) is added per well for a final concentration of 10 uM ATP. The plate is sealed and incubated for 1 hour at room temperature. The reaction is stopped by adding 5 ul of Stop Solution per well and then 5 ul of Detection Mix is added per well. The plate is sealed, incubated for 1 hour at room temperature, and then read on an appropriate plate reader. Data is analyzed and IC50s are generated using GraphPad Prism 5.

PI3K α = molecular target: T2, PI3K α (Homo sapiens, UniProt P42336); experiment: In vitro IC50, PI3K α (p110α/p85α inhibition assay); assay type: biochemical; conditions: in vitro kinase assay; read-out: IC50(nM) PI3K α
T2 construct: purchased Upstate
Experimental: as §1, with “IC50” for “Class I PI3-Ks can be either purchased (p110α/p85α, p110β/p85α, p110δ/p85α from Upstate, and p110γ from Sigma) or expressed as previously described (Knight et al., 2004). IC50”, “quantitated.” for “quantitated. For each compound, kinase activity is measured at 10-12 inhibitor concentrations representing two-fold dilutions from the highest concentration tested (typically, 200 μM).”
as §2

PI3K δ = molecular target: T3, PI3K δ (Homo sapiens, UniProt O00329); experiment: In vitro IC50, PI3K δ (p110δ/p85α inhibition assay); assay type: biochemical; conditions: in vitro kinase assay; read-out: IC50(nM) PI3K δ
T3 construct: purchased Upstate
Experimental: as §1, with “IC50” for “Class I PI3-Ks can be either purchased (p110α/p85α, p110β/p85α, p110δ/p85α from Upstate, and p110γ from Sigma) or expressed as previously described (Knight et al., 2004). IC50”, “quantitated.” for “quantitated. For each compound, kinase activity is measured at 10-12 inhibitor concentrations representing two-fold dilutions from the highest concentration tested (typically, 200 μM).”
as §2

T2 sequence (P42336 whole entry): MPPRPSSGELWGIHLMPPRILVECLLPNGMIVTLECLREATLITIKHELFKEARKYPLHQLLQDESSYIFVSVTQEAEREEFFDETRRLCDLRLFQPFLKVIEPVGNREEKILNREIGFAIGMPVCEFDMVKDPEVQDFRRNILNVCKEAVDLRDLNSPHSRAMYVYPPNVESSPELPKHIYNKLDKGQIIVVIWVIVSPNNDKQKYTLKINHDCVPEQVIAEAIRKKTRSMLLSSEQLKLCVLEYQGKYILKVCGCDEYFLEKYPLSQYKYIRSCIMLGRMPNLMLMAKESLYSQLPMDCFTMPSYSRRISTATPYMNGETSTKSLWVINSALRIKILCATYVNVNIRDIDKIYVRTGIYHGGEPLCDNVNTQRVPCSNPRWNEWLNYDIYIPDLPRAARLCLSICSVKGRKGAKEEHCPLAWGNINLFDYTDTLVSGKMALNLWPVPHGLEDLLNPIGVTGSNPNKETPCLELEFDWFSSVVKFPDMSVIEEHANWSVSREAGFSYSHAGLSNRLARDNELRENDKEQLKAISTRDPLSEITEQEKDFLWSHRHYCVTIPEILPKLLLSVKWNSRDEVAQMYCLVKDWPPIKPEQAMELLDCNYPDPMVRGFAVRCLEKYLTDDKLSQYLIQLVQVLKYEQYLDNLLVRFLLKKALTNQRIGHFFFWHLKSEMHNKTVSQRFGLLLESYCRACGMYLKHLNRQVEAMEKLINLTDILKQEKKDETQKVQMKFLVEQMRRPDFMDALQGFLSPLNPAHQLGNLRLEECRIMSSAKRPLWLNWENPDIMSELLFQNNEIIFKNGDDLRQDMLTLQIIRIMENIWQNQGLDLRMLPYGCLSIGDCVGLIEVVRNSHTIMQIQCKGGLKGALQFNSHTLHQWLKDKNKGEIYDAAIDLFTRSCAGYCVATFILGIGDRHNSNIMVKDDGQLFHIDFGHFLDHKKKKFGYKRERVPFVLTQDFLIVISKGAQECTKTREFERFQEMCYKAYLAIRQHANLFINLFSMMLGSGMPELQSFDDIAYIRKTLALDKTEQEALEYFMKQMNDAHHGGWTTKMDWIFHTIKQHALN
T2 sequence (P27986 whole entry partner): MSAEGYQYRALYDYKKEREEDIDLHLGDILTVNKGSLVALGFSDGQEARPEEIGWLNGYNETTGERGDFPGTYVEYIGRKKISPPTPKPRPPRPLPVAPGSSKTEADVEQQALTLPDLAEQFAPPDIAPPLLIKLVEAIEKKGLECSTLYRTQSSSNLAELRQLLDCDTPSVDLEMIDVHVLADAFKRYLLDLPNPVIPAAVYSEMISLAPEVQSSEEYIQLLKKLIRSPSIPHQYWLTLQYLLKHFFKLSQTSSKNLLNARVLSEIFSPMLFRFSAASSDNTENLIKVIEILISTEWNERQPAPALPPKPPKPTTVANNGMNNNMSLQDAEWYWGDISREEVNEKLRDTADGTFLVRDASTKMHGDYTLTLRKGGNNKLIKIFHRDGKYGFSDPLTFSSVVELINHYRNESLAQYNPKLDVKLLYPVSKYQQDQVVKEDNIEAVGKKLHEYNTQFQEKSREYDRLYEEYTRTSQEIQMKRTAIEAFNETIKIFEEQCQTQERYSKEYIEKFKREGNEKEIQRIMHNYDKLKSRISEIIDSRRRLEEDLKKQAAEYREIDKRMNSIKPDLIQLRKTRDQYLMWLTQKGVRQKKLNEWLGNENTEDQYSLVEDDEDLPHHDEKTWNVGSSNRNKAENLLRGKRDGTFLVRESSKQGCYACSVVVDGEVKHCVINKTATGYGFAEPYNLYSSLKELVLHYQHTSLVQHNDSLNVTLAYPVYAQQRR
T3 sequence (O00329 whole entry): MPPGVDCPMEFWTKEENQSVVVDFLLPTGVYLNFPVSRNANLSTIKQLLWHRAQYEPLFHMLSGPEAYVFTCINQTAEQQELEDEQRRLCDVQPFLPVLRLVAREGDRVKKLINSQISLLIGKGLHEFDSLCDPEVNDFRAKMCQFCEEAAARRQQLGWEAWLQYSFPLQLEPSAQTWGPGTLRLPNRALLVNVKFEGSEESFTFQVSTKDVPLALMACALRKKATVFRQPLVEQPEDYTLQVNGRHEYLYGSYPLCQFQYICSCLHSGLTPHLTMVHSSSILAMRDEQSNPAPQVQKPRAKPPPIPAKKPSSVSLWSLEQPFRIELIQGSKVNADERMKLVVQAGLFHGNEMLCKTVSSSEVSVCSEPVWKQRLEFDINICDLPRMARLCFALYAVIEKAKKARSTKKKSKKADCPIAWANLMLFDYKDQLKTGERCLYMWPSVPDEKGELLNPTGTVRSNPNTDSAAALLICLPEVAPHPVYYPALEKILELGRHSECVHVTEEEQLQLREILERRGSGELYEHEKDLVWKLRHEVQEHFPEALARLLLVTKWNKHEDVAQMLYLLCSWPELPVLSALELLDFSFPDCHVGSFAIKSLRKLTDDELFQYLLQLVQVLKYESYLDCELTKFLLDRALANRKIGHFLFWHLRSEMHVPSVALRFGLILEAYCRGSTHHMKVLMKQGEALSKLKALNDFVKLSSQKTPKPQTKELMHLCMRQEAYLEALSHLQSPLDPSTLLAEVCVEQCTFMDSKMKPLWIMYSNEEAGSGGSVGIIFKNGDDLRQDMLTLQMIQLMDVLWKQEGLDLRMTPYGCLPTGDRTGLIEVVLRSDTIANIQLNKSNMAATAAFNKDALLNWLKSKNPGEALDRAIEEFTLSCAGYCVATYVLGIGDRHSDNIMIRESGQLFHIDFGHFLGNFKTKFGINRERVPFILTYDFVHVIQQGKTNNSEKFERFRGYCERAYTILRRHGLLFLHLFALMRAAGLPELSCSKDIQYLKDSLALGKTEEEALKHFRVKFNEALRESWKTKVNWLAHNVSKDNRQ
T3 sequence (P27986 whole entry partner): as the sequence (P27986 whole entry partner) above
T1 sequence (P48736 whole entry): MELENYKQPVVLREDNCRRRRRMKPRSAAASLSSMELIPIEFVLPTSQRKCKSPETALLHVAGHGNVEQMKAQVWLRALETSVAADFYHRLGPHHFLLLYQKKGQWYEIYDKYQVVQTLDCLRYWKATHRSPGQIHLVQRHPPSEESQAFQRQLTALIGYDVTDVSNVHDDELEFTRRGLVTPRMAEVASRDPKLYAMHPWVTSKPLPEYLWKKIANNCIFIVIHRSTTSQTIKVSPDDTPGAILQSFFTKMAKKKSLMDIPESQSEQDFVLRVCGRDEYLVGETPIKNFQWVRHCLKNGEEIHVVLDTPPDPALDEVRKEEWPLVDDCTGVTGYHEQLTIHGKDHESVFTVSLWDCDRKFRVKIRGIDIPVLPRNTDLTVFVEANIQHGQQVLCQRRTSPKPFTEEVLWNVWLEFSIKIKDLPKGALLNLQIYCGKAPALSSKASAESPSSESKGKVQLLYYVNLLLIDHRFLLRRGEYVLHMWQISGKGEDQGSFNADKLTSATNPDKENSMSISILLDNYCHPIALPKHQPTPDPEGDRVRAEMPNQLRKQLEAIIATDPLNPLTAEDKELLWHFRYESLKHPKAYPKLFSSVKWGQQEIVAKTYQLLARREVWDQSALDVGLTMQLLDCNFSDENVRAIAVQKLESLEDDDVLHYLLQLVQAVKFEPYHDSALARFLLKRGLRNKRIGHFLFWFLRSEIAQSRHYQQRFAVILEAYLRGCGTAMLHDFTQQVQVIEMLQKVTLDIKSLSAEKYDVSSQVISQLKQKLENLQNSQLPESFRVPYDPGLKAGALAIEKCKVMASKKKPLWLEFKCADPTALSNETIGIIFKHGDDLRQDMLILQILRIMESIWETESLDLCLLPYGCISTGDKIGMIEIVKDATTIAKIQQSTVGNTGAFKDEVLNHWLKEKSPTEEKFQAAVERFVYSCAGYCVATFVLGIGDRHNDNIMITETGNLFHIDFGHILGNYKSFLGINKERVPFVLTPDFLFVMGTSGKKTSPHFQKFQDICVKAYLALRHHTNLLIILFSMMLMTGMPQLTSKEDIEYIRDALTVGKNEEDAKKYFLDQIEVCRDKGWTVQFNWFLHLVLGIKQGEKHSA

Row | SMILES | IC50 (PI3K γ) | IC50 (PI3K α) | IC50 (PI3K δ) | pEC50 (Balb/c splenic B cells)
1 | CCN1CCC(COc2nc(C(C)Nc3ncnc4[nH]cnc34)cc3cccc(C)c23)CC1 (centres unmarked) [Compound 46] | > 10000 nM |  | < 100 nM | > 7.00
2 | CC(Nc1ncnc2[nH]cnc12)c1cc2cccc(Cl)c2c(CCN2CCCC2)n1 (centres unmarked) [Compound 79] | < 10000 nM | > 10000 nM | < 100 nM | 
3 | Cc1cccc2cc(C(C)Nc3ncnc4[nH]cnc34)nc(OC3CCN(C(C)C)CC3)c12 (centres unmarked) [Compound 21] | > 10000 nM | < 10000 nM | < 100 nM | 
4 | C[C@H](Nc1ncnc2[nH]cnc12)c1cc2cccc(Cl)c2c(N(C)C)n1 [Compound 71] | < 1000 nM | < 10000 nM | < 100 nM | 
5 | C[C@@H](Nc1ncnc2[nH]cnc12)c1cc2cccc(Cl)c2c(N2CCN(S(C)(=O)=O)CC2)n1 [Compound 83] | > 10000 nM | > 10000 nM | > 10000 nM | 
6 | C[C@H](Nc1ncnc2[nH]cnc12)c1cc2cccc(Cl)c2c(CCN2CCC2)n1 [Compound 88] | < 10000 nM | < 10000 nM | < 100 nM | 
7 | CC(Nc1ncnc2[nH]cnc12)c1cc2ccccc2c(OC2CCN(C)CC2)n1 (centres unmarked) [Compound 23] | > 10000 nM | > 10000 nM | < 1000 nM | 
8 | C[C@@H](Nc1ncnc2[nH]cnc12)c1cc2cccc(Cl)c2c(OC2CCN(S(C)(=O)=O)CC2)n1 [Compound 84] | > 10000 nM | > 10000 nM | < 1000 nM | 
9 | Cc1cccc2cc(C(C)Nc3ncnc4[nH]cnc34)nc(OC3CCN(S(C)(=O)=O)CC3)c12 (centres unmarked) [Compound 48] | < 10000 nM | > 10000 nM | < 100 nM | 
10 | C[C@H](Nc1ncnc2[nH]cnc12)c1cc2cccc(Cl)c2c(N2CCN(S(C)(=O)=O)C[C@H]2C)n1 [Compound 86] | < 1000 nM | > 10000 nM | < 1000 nM | 
11 | C[C@H](Nc1ncnc2[nH]cnc12)c1cc2ccccc2c(N2CCN(S(C)(=O)=O)CC2)n1 [Compound 77] | > 10000 nM | > 10000 nM | < 1000 nM | 

Further lines, with some results ahead:

Row | IC50 (PI3K γ) | IC50 (PI3K α) | IC50 (PI3K δ) | SMILES | pEC50 (Balb/c splenic B cells)
12 | < 1000 nM | < 10000 nM | < 100 nM | C[C@H](Nc1ncnc2[nH]cnc12)c1cc2cccc(Cl)c2c(OCCN2CCOCC2)n1 [Compound 65] | > 7.00
13 | < 10000 nM |  | < 100 nM | Cc1cccc2cc(C(C)Nc3ncnc4[nH]cnc34)nc(CCN3CCOCC3)c12 (centres unmarked) [Compound 38] | > 7.00
14 | > 10000 nM |  | < 100 nM | Cc1cccc2cc(C(C)Nc3ncnc4[nH]cnc34)nc(OCC3CCN(C)CC3)c12 (centres unmarked) [Compound 45] | > 7.00
15 | < 100 nM | < 1000 nM | < 100 nM | Cc1cccc2cc(Cn3nc(-c4ccc5oc(N)nc5c4)c4c(N)ncnc43)nc(OC3CCN(C(C)C)CC3)c12 [Compound 4] | > 7.00
16 | < 100 nM |  | < 100 nM | Cc1cccc2cc(Cn3nc(-c4ccc5oc(N)nc5c4)c4c(N)ncnc43)nc(N3CCOCC3)c12 [Compound 36] | > 6.00
17 | < 10000 nM |  | < 100 nM | Cc1cccc2cc(Cn3nc(-c4cn[nH]c4)c4c(N)ncnc43)nc(N3CCOCC3)c12 [Compound 37] | > 7.00
18 | > 10000 nM |  | < 100 nM | Cc1cccc2cc(C(C)Nc3ncnc4[nH]cnc34)nc(CCN3CCCC3)c12 (centres unmarked) [Compound 39] | > 7.00
19 | < 1000 nM | < 10000 nM | < 100 nM | Cc1cccc2cc(Cn3nc(-c4cn[nH]c4)c4c(N)ncnc43)nc(N3CCCC3)c12 [Compound 27] | 
20 | < 10000 nM | > 10000 nM | < 100 nM | CC(Nc1ncnc2[nH]cnc12)c1cc2cccc(Cl)c2c(CCN2CCOCC2)n1 (centres unmarked) [Compound 78] | 
21 | < 10000 nM |  | < 100 nM | Cc1cccc2cc(C(C)Nc3ncnc4[nH]cnc34)nc(N3CCOCC3)c12 (centres unmarked) [Compound 44] | > 6.00
22 | > 10000 nM |  | < 100 nM | Cc1cccc2cc(C(C)Nc3ncnc4[nH]cnc34)nc(NCCN3CCOCC3)c12 (centres unmarked) [Compound 42] | > 6.00
